Results reported in patent US20120283293A1, “Methods of neuroprotection involving Prostaglandin E2 EP4 (PGE2 EP4) receptor activation” (The Board of Trustees of the Leland Stanford Junior …, priority 2011, published 2012).

What was measured:
[1] = tested on: IKK phosphorylation in BV-2 cells; assay: phospho-IKK quantitative Western in LPS-stimulated BV-2 cells; format: cell-based, murine; settings: LPS 100 ng/ml, AE1-329 100 nM
Method: Nuclear and cytoplasmic fractions of BV-2 cells were prepared at several time points after treatment (0-120 minutes) using the nuclear extract kit from Active Motif (Carlsbad, Calif.). Briefly, cells were washed, collected in ice-cold PBS in the presence of phosphatase inhibitors, and centrifuged at 300×g for 5 min at 4° C. Cell pellets were resuspended in hypotonic buffer, treated with detergent, and centrifuged at 14,000×g for 30 sec at 4° C. After collection of the cytoplasmic fraction, nuclei were solubilized for 30 min in lysis buffer containing protease inhibitors. Lysates were centrifuged at 14,000×g for 30 min at 4° C. and supernatants were collected for NF-κB studies. To prepare whole cell lysates for phospho-Akt and phospho-IKK studies, cells were washed in ice-cold PBS and lysed in 20 mM Tris-HCl, pH 7.5, 150 mM NaCl, 1 mM Na2EDTA, 1 mM EGTA, 1% Triton, 2.5 mM sodium pyrophosphate, 1 mM β-glycerophosphate, 1 mM orthovanadate, 1 μg/ml leupeptin and 1 mM PMSF. […] All protein concentrations were determined using the Bradford protein assay.
Western blot analysis. […] Immunoreactivity was detected using either sheep anti-rabbit or sheep anti-mouse HRP-conjugated secondary antibody (Amersham Biosciences, Arlington Heights, Ill.), followed by enhanced chemiluminescence (Pierce). Autoradiographic signals were quantified using NIH Image. […]

[2] = tested on: BV-2 cells; assay: qPCR of pro-inflammatory gene expression in LPS-stimulated BV-2 cells; format: cell-based, murine; settings: LPS 10 ng/ml, 6 h
Method: Murine microglial-like BV-2 cells were grown in DMEM medium supplemented with 10% heat-inactivated fetal bovine serum (HyClone, Logan, Utah) and 100 units/ml each of penicillin and streptomycin and were maintained at 37° C. in a humidified atmosphere containing 5% CO2. For primary microglial cultures, cerebral cortices were isolated from postnatal day 2 Sprague-Dawley rat pups obtained from Charles River Laboratories International, Inc. (Davis, Calif.). Tissues were minced and incubated in 0.25% trypsin-EDTA, mechanically triturated in DMEM/F-12 with 10% FBS, and plated on poly-L-lysine-coated […]. Cultures were maintained for 14 days with media changes every 4 days. […]
qPCR was carried out as previously described (Liang et al., 2008). […] The mRNA level for each target gene was quantified by SYBR Green-based qPCR using the QuantiTect SYBR Green PCR kit (Qiagen). […] Quantification was performed using the standard curve method. […]
Inflammatory stimuli such as LPS can activate microglia through the CD14/TLR4 receptor complex and induce the expression of pro-inflammatory enzymes and cytokines (Fassbender et al., 2004; Walter et al., 2007). […] BV-2 cells were treated with LPS (10 ng/ml) in the presence or absence of the selective EP4 agonist AE1-329 (1 μM) for 6 h, and pro-inflammatory gene expression was measured using qPCR (see FIG. 2). […]

[3] = tested on: EP4 receptor; settings: Suzawa et al., 2000; Shibuya et al., 2002; cited from earlier work

## COCc1ccccc1CC[C@H](O)/C=C/[C@H]1[C@H](O)CC(=O)[C@@H]1SCCCSCC(=O)O [AE1-329]
[1]
  LPS-induced phosphorylation of IKK: attenuated
[2]; AE1-329 1 μM, qPCR
  LPS-induced mRNA of COX-2, iNOS, gp91phox, TNF-α, IL-1β and IL-6: significantly blunted the induction of these genes
[2]; co-stimulation with AE1-329 1 μM
  IL-10 mRNA expression: significantly induced expression
[3]
  selectivity for the EP4 receptor: selectivity for the EP4 receptor has been previously established
